Source: ChEMBL document CHEMBL1158246, “New cytotoxic briaran diterpenes from the Formosan gorgonian Briareum sp” (1996)
In brackets after ≈: the same amount, converted by molar mass.

Tests used:
Type in all cases: functional
Conditions in all cases: read-out: ED50 (the source's name)
P388 = experiment: Cytotoxicity against mouse P388 cells
KB = experiment: Cytotoxicity against human KB cells
A549 = experiment: Cytotoxicity against human A549 cells
HT-29 = experiment: Cytotoxicity against human HT29 cells

SMILES	EC50 (P388)	EC50 (KB)	EC50 (A549)	EC50 (HT-29)
CC(=O)O[C@H]1C[C@@H]2O[C@]2(C)[C@@H]2[C@@H](OC(C)=O)[C@]34O[C@]3(C)C(=O)O[C@H]4/C=C(/C)CC[C@@H](OC(C)=O)[C@@]12C	1.59 µg/mL (≈ 3.14 µM)	24.4 µg/mL (≈ 48.3 µM)	17.4 µg/mL (≈ 34.3 µM)	10.1 µg/mL (≈ 19.9 µM)
CC(=O)O[C@H]1C[C@@H]2O[C@]2(C)[C@@H]2[C@@H](O)[C@]34O[C@]3(C)C(=O)O[C@H]4/C=C(/C)CC[C@@H](OC(C)=O)[C@@]12C	0.61 µg/mL (≈ 1.31 µM)	> 50 µg/mL	> 50 µg/mL	6.96 µg/mL (≈ 15 µM)
CC(=O)O[C@H]1CC=C(C)[C@@H]2[C@@H](O)[C@]34O[C@]3(C)C(=O)O[C@H]4/C=C(/C)CC[C@@H](OC(C)=O)[C@@]12C	0.28 µg/mL (≈ 0.624 µM)	0.27 µg/mL (≈ 0.602 µM)	10.3 µg/mL (≈ 23.1 µM)	8.27 µg/mL (≈ 18.4 µM)
CC(=O)O[C@H]1CC=C(C)[C@@H]2[C@@H](OC(C)=O)[C@]34O[C@]3(C)C(=O)O[C@H]4/C=C(/C)CC[C@@H](OC(C)=O)[C@@]12C [BRIAREOLIDE H]	3.1 µg/mL (≈ 6.32 µM)	> 50 µg/mL	> 50 µg/mL	0.29 µg/mL (≈ 0.591 µM)
